From patent US9102648B1, “Bioavailable diacylhydrazine ligands for modulating the expression of exogenous genes via an ecdysone receptor complex” (Intrexon Corporation, priority 2003, dated 2015)
Where two headings read alike, the source gives them in different places.

What was measured:
[1] = molecular target: GAL4 DBD-CfEcR(DEF)/VP16AD-MmRXRE (Choristoneura fumiferana, UniProt O77240); assay: 13B3 Assay (CHO stable cell line, luciferase reporter); settings: for Fold Induction, 13B3 Assay, 33 uM: 33 uM ligand; for Fold Induction, 13B3 Assay, 33 uM / Fold Induction, 13B3 Assay, 3.3 uM: RLU ligand treated / RLU DMSO treated cells; for Fold Induction, 13B3 Assay, 3.3 uM: 3.3 uM ligand; for 13B3 assay Rel Max FI: maximum fold induction at any concentration relative to that of GS-E ligand, CHO 13B3 cells; for fold induction at 3.3 µM: read-out: Fold Induction, 13B3 Assay, 3.3 uM; for fold induction at 33 µM: read-out: Fold Induction, 13B3 Assay, 33 uM
Summary of the method: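 CHO 13B3 clone stably expressing GAL4 DBD–CfEcR(DEF) and VP16AD–MmRXR(DE) with GAL4 RE–luciferase reporter; cells plated 24 h at 37 °C, then treated with ligands (DMSO stocks diluted 300-fold), 8 concentrations 33–0.01 μM.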

[2] = molecular target: T1, Bombyx mori EcR (VP16 fusion, CVBE switch construct) (Bombyx mori, UniProt P49881); assay: Z3 Assay (HEK-293 cells with CVBE and 6XEcRE LacZ, β-galactosidase reporter); settings: for Fold Induction, Z3 Assay, 3.3 uM: 3.3 uM ligand; for Fold Induction, Z3 Assay, 3.3 uM / Fold Induction, Z3 Assay, 33 uM: ligand treated / DMSO treated cells; for Fold Induction, Z3 Assay, 33 uM: 33 uM ligand; for Z3 assay Rel Max FI: maximum fold induction at any concentration relative to that of GS-E ligand; for fold induction at 3.3 µM: HEK293, read-out: Fold Induction, Z3 Assay, 3.3 uM; for fold induction at 33 µM: HEK293, read-out: Fold Induction, Z3 Assay, 33 uM
T1 sequence (P49881 86-606): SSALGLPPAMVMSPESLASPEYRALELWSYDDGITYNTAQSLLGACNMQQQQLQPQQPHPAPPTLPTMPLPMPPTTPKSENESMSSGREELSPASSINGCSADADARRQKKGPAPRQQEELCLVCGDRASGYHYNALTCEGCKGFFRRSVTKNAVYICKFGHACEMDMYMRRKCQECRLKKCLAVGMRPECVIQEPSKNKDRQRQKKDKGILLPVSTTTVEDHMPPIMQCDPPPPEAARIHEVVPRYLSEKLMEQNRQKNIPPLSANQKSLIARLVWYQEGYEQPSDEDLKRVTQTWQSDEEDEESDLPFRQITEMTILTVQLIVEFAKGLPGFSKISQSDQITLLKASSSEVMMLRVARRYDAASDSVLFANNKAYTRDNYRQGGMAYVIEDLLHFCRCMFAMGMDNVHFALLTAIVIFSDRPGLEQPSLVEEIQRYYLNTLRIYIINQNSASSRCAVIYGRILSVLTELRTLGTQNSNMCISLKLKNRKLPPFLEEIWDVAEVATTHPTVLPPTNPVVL
T1 sequence (P19793 1-462 partner): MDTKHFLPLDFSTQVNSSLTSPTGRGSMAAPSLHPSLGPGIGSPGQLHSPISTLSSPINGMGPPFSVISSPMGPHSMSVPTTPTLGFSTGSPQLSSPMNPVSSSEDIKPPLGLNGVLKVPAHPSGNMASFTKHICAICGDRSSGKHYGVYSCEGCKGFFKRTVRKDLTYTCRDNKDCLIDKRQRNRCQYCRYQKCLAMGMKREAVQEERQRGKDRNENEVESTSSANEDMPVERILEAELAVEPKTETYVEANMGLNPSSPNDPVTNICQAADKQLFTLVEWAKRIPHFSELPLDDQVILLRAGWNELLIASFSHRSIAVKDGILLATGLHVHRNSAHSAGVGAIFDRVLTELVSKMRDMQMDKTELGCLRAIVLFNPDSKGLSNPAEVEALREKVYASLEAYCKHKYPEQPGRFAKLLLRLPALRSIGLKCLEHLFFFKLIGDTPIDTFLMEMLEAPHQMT

[3] = read-out: Z3 assay EC50, HEK-293 Z3 cells, β-galactosidase reporter, average of two wells
[4] = read-out: 13B3 EC50, CHO 13B3 stable cell line, luciferase reporter, 48 h, average of two wells

SMILES	Fold Induction, 13B3 Assay, 33 uM ([1]; average of two wells)	Fold Induction, Z3 Assay, 3.3 uM ([2]; average of two wells)	Fold Induction, Z3 Assay, 33 uM ([2]; average of two wells)	Z3 assay Rel Max FI ([2]; HEK-293 Z3 cells)	EC50 [2, 3] [nM]	Fold Induction, 13B3 Assay, 3.3 uM ([1]; average of two wells)	13B3 assay Rel Max FI [1]	EC50 [1, 4] [nM]	EC50 [1] [nM]	fold induction at 3.3 µM [1]	fold induction at 33 µM [1]	EC50 [2] [nM]	fold induction at 3.3 µM [2]	fold induction at 33 µM [2]
CCc1c(OC)cccc1C(=O)NN(C(=O)c1cccc(C#N)c1)C(C)(C)C [RG-115327]	3785	279	325	0.662	2750									
CCc1c(OC)cccc1C(=O)NN(C(=O)c1cc(OC)c(OC)c(OC)c1)C(C)(C)C [RG-115329]	5644	259	430	0.892	2570									
CCc1c(OC)cccc1C(=O)NN(C(=O)c1ccccc1[N+](=O)[O-])C(C)(C)C [RG-115330]	3577	633	432	0.860	186	1995	0.711	5690						
Cc1c(C(=O)NN(C(=O)c2cccc(F)c2)C(C)(C)C)ccc2c1OCCO2 [RG-115350]		499		0.935	309	450	0.711	795						
COc1cccc(C(=O)NN(C(=O)c2cc(C)cc(C)c2)C(C)(C)C)c1CSC [RG-115358, 3-Methoxy-2-methylsulfanylmethyl-benzoic acid N′-tert-butyl-N′-(3,5-dimethyl-benzoyl)-hydrazide]				0.48			0.20		> 50000	1	584	9450	33	769
COc1cccc(C(=O)NN(C(=O)c2cc(C)cc(C)c2)C(C)(C)C)c1CO [RG-115371, 3,5-dimethyl-benzoic acid N-tert-butyl-N′-(2-hydroxymethyl-3-methoxy-benzoyl)-hydrazide]				0.76			1.44		> 50000	1	1090	3020	249	1770
COc1cccc(C(=O)NN(C(=O)c2cc(C)cc(C)c2)C(C)(C)C)c1CS(C)(=O)=O [RG-115408, 2-methanesulfonylmethyl-3-methoxy-benzoic acid N′-tert-butyl-N′-(3,5-dimethyl-benzoyl)-hydrazide]				0.01			0		> 50000	1		> 50000	1	3
CCc1c(OC)cccc1C(=O)NN(C(=O)c1cc(C)cc(/C=N/NC(N)=O)c1)C(C)(C)C [RG-115429, semicarbazide of N-(3-formyl-5-methyl-benzoyl)-N-tert-butyl-N′-(2-ethyl-3-methoxy-benzoyl) hydrazide]				0.880			1.065		8680	18	1840	9570	3	1720
COc1cccc(C(=O)NN(C(=O)c2cc(C)cc(C)c2)C(C)(C)C)c1CCl [RG-115490, 3,5-dimethyl-benzoic acid N-tert-butyl-N′-(2-chloromethyl-3-methoxy-benzoyl)-hydrazide]				0.44			1.01		> 50000	2	844	6350	123	814
COc1cccc(C(=O)NN(C(=O)c2cc(C)cc(C)c2)C(C)(C)C)c1CN(C)C [RG-115497, 3,5-dimethyl-benzoic acid N-tert-butyl-N′-(2-dimethylaminomethyl-3-methoxy-benzoyl)-hydrazide]				0.07			0		> 50000	1		> 50000	1	20
CCc1c(OC)cccc1C(=O)NN(C(=O)c1cccc(F)c1)C(C)(C)C [RG-115515]	1996	1306	420	0.975	617									
Cc1cc(C)cc(C(=O)N(NC(=O)c2ccc3c(c2Cl)COCO3)C(C)(C)C)c1 [RG-115532]	738	530		0.933	129	908	0.835	518						
C=Cc1c(OC)cccc1C(=O)NN(C(=O)c1cc(F)c(Cl)cc1Cl)C(C)(C)C [RG-115534]	211	168	249	0.463	2750									
Cc1c(C(=O)NN(C(=O)c2cc(Cl)nc(Cl)c2)C(C)(C)C)ccc2c1OCCO2 [RG-115536]		488		0.950	126	483	0.734	781						
CCc1c(OC)cccc1C(=O)NN(C(=O)c1cnccn1)C(C)(C)C [RG-115550, pyrazine-2-carboxylic acid N-tert-butyl-N′-(2-ethyl-3-methoxy-benzoyl)-hydrazide]										1				21
COc1cc(C(=O)N(NC(=O)c2ccc3c(c2C)OCCO3)C(C)(C)C)c([N+](=O)[O-])c(OC)c1C [RG-115609, 3,5-dimethoxy-4-methyl-2-nitrobenzoic acid N-t-butyl-N′-(5-methy-1benzo-1,4-dioxan-6-carbonyl)-hydrazide]	4217	90	383	0.625	1390	558	0.883	13800						
